In ChEMBL document CHEMBL1138574, “Regioselective synthesis and stereochemical structure of anti-tumor active dispiro[3H-indole-3,2'-pyrrolidine-3',3''-piperidine]-2(1H),4''-diones” (2009):

Tests used:
Assay type in all cases: functional
Rattus norvegicus [1] = test: Antiinflammatory activity in Wister albino rat assessed as inhibition of carrageenan-induced paw oedema at 50 mg/kg, ip administered 1 hr before carrageenan challenge measured after 3 hrs of induction of inflammation relative to control; details: route intraperitoneal
BT-549 = test: Antitumor activity against human BT549 cells assessed as cell growth at 10 uM after 48 hrs by sulforhodamine B assay; details: BT-549, 48 h, read-out: Activity
SK-MEL-2 = test: Antitumor activity against human SK-MEL-2 cells assessed as cell growth at 10 uM after 48 hrs by sulforhodamine B assay; details: SK-MEL-2, 48 h, read-out: Activity
NCI-H322M = test: Antitumor activity against human NCI-H322M cells assessed as cell growth at 10 uM after 48 hrs by sulforhodamine B assay; details: read-out: Activity
786-0 = test: Antitumor activity against human 786-0 cells assessed as cell growth at 10 uM after 48 hrs by sulforhodamine B assay; details: 786-0, 48 h, read-out: Activity
COLO 205 = test: Antitumor activity against human COLO205 cells assessed as cell growth at 10 uM after 48 hrs by sulforhodamine B assay; details: COLO 205, 48 h, read-out: Activity
SN12C = test: Antitumor activity against human SN12C cells assessed as cell growth at 10 uM after 48 hrs by sulforhodamine B assay; details: read-out: Activity
HCT-116 = test: Antitumor activity against human HCT116 cells assessed as cell growth at 10 uM after 48 hrs by sulforhodamine B assay; details: HCT-116, 48 h, read-out: Activity
HCT-15 = test: Antitumor activity against human HCT15 cells assessed as cell growth at 10 uM after 48 hrs by sulforhodamine B assay; details: HCT-15, 48 h, read-out: Activity
SNB-19 = test: Antitumor activity against human SNB19 cells assessed as cell growth at 10 uM after 48 hrs by sulforhodamine B assay; details: SNB-19, 48 h, read-out: Activity
SF-539 = test: Antitumor activity against human SF539 cells assessed as cell growth at 10 uM after 48 hrs by sulforhodamine B assay; details: SF-539, 48 h, read-out: Activity
MDA-MB-231 = test: Antitumor activity against human MDA-MB-231 cells assessed as cell growth at 10 uM after 48 hrs by sulforhodamine B assay; details: MDA-MB-231, 48 h, read-out: Activity
LOX IMVI = test: Antitumor activity against human LOXIMVI cells assessed as cell growth at 10 uM after 48 hrs by sulforhodamine B assay; details: read-out: Activity
CCRF-CEM = test: Antitumor activity against human CCRF-CEM cells assessed as cell growth at 10 uM after 48 hrs by sulforhodamine B assay; details: read-out: Activity
MOLT-4 = test: Antitumor activity against human MOLT4 cells assessed as cell growth at 10 uM after 48 hrs by sulforhodamine B assay; details: MOLT-4, 48 h, read-out: Activity
UO-31 = test: Antitumor activity against human UO31 cells assessed as cell growth at 10 uM after 48 hrs by sulforhodamine B assay; details: UO-31, 48 h, read-out: Activity
UACC-257 = test: Antitumor activity against human UACC257 cells assessed as cell growth at 10 uM after 48 hrs by sulforhodamine B assay; details: UACC-257, 48 h, read-out: Activity
ACHN = test: Antitumor activity against human ACHN cells assessed as cell growth at 10 uM after 48 hrs by sulforhodamine B assay; details: read-out: Activity
SF-268 = test: Antitumor activity against human SF268 cells assessed as cell growth at 10 uM after 48 hrs by sulforhodamine B assay; details: SF-268, 48 h, read-out: Activity
[2] = Antitumor activity against human Hs 578T cells assessed as cell growth at 10 uM after 48 hrs by sulforhodamine B assay; details: read-out: Activity
Rattus norvegicus [3] = test: Antiinflammatory activity in Wister albino rat assessed as inhibition of carrageenan-induced paw oedema at 50 mg/kg, ip administered 1 hr before carrageenan challenge measured after 24 hrs of induction of inflammation relative to control; details: route intraperitoneal
NCI-H226 = test: Antitumor activity against human NCI-H226 cells assessed as cell growth at 10 uM after 48 hrs by sulforhodamine B assay; details: NCI-H226, 48 h, read-out: Activity
HL-60(TB) = test: Antitumor activity against human HL-60(TB) cells assessed as cell growth at 10 uM after 48 hrs by sulforhodamine B assay; details: HL-60, 48 h, read-out: Activity
DU-145 = test: Antitumor activity against human DU145 cells assessed as cell growth at 10 uM after 48 hrs by sulforhodamine B assay; details: DU-145, 48 h, read-out: Activity
OVCAR-4 = test: Antitumor activity against human OVCAR4 cells assessed as cell growth at 10 uM after 48 hrs by sulforhodamine B assay; details: OVCAR-4, 48 h, read-out: Activity
KM12 = test: Antitumor activity against human KM12 cells assessed as cell growth at 10 uM after 48 hrs by sulforhodamine B assay; details: KM12, 48 h, read-out: Activity
Rattus norvegicus [4] = test: Antiinflammatory activity in Wister albino rat assessed as inhibition of carrageenan-induced paw oedema at 50 mg/kg, ip administered 1 hr before carrageenan challenge measured after 1 hr of induction of inflammation relative to control; details: route intraperitoneal
[5] = Antitumor activity against human […] cells assessed as cell growth at 10 uM after 48 hrs by sulforhodamine B assay; details: read-out: Activity
Rattus norvegicus [6] = test: Antiinflammatory activity in Wister albino rat assessed as inhibition of carrageenan-induced paw oedema at 50 mg/kg, ip administered 1 hr before carrageenan challenge measured after 2 hrs of induction of inflammation relative to control; details: route intraperitoneal
SK-MEL-28 = test: Antitumor activity against human SK-MEL-28 cells assessed as cell growth at 10 uM after 48 hrs by sulforhodamine B assay; details: SK-MEL-28, 48 h, read-out: Activity
SW-620 = test: Antitumor activity against human SW620 cells assessed as cell growth at 10 uM after 48 hrs by sulforhodamine B assay; details: SW-620, 48 h, read-out: Activity
IGROV-1 = test: Antitumor activity against human IGROV1 cells assessed as cell growth at 10 uM after 48 hrs by sulforhodamine B assay; details: IGROV-1, 48 h, read-out: Activity
NCI-H23 = test: Antitumor activity against human NCI-H23 cells assessed as cell growth at 10 uM after 48 hrs by sulforhodamine B assay; details: NCI-H23, 48 h, read-out: Activity
CAKI-1 = test: Antitumor activity against human Caki1 cells assessed as cell growth at 10 uM after 48 hrs by sulforhodamine B assay; details: CAKI-1, 48 h, read-out: Activity
NCI/ADR-RES = test: Antitumor activity against human NCI/ADR-RES cells assessed as cell growth at 10 uM after 48 hrs by sulforhodamine B assay; details: read-out: Activity
RXF 393 = test: Antitumor activity against human RXF393 cells assessed as cell growth at 10 uM after 48 hrs by sulforhodamine B assay; details: RXF 393, 48 h, read-out: Activity

CN1C/C(=C\c2ccc(Cl)cc2)C(=O)[C@]2(C1)[C@@H](c1ccc(Cl)cc1)CN(C)[C@@]21C(=O)N(C)c2ccccc21
inhibition in vivo at 50 mg/kg (Rattus norvegicus [1]): 44.5% | growth at 10 µM (BT-549): 80.3% | growth at 10 µM (SK-MEL-2): 71.9% | growth at 10 µM (NCI-H322M): 79.1% | growth at 10 µM (786-0): 73.9% | growth at 10 µM (COLO 205): 99.6% | growth at 10 µM (SN12C): 62.9% | growth at 10 µM (HCT-116): 29.9% | growth at 10 µM (HCT-15): 76.2% | growth at 10 µM (SNB-19): 77.3% | growth at 10 µM (SF-539): 78.1% | growth at 10 µM (MDA-MB-231): 70.4% | growth at 10 µM (LOX IMVI): 73.9% | growth at 10 µM (CCRF-CEM): 31.5% | growth at 10 µM (MOLT-4): 43.2% | growth at 10 µM (UO-31): 56.6% | growth at 10 µM (UACC-257): 72% | growth at 10 µM (ACHN): 57.5% | growth at 10 µM (SF-268): 83.6% | growth at 10 µM [2]: 97.3% | inhibition in vivo at 50 mg/kg (Rattus norvegicus [3]): 49.3% | growth at 10 µM (NCI-H226): 58.6% | growth at 10 µM (HL-60(TB)): 16.6% | growth at 10 µM (DU-145): 88.4% | growth at 10 µM (OVCAR-4): 43.1% | growth at 10 µM (KM12): 78.7% | inhibition in vivo at 50 mg/kg (Rattus norvegicus [4]): 82.3% | growth at 10 µM [5]: 38% | inhibition in vivo at 50 mg/kg (Rattus norvegicus [6]): 62.2% | growth at 10 µM (SK-MEL-28): 104% | growth at 10 µM (SW-620): 68.1% | growth at 10 µM (IGROV-1): 92.1% | growth at 10 µM (NCI-H23): 33.9% | growth at 10 µM (CAKI-1): 56.6% | growth at 10 µM (NCI/ADR-RES): 56.9% | growth at 10 µM (RXF 393): 67.2%
